Results on 14 molecules are retold here after paper PMC10545747, “Development of cyclopeptide inhibitors of cGAS targeting protein-DNA interaction and phase separation” (Nature Communications, 2023).

Several values for one entry are separate records, joined by “and”; a condition that tells them apart may be missing. Identical values can stand only once. Square brackets hold non-standard residues; d marks the D form. Peptide text beside a SMILES is read from it. Hyp = O=C(O)[C@@H]1C[C@@H](O)CN1 Where only a bound is given, the exact number is not on record here.

For one experiment, the system named is THP1-Lucia ISG cells. Put plainly: Luciferase reporter assay, dsDNA stimulation. In kind it is cell-based, human. Set-up: Type I interferon response, luciferase activity, Fig. 1c / luciferase activity, Fig. 2a: scale not given here. The following applies: dsDNA 24 h; replicate values. The source says:
(§1) To screen direct cGAS inhibitors targeting protein-DNA interface from our developed focused library of macrocyclic peptides, we applied an RNA-based fluorescent biosensor for 2’,3’-cGAMP to detect cGAS activity in vitro (Supplementary Fig. 1a)[49]. The formation of 2’,3’-cGAMP from ATP and GTP was catalyzed by recombinant human cGAS enzyme (hcGAS-ΔN, residues 147–522, Supplementary Fig. 1b) in the presence of ISD (interferon stimulatory DNA, a 45-bp dsDNA), which was readily quantified by the RNA-based fluorescent biosensor and was further confirmed by ion exchange chromatography (Supplementary Fig. 1c). […] Subsequently, a total of 90 macrocyclic peptides were screened at a concentration of 20 μM (Fig. 1a and Supplementary Fig. 1e), and 4 hits (XQ2, XQ8, XQ19, and XQ46) were obtained for further testing at a cut-off of 40% inhibition (Supplementary Table 1). To evaluate the inhibitory effect of the hits against cGAS in cells, we employed real-time quantitative PCR (qPCR) to examine mRNA levels of IFNΒ1 in THP1 cells. The reported cGAS inhibitor RU.521 was used as the positive control, and the non-active peptide XQ28 in the screening assay was used as the negative control. […] The inhibition of cGAS by these hits was further confirmed in the reporter cell line THP1-Lucia ISG (Invivogen) that expresses secreted luciferase induced by an IRF3-inducible ISG54 promoter (Fig. 1c). The discrepancy between the inhibitory effect of the hits in protein and cellular assays may be attributed to their different cellular permeability.
THP1-Lucia ISG cells (Invivogen) were seeded into a 96-well plate and incubated with RU.521 (Invivogen) or XQ2 for the indicated time, and then transfected with dsDNA by lipofectamine 2000 (Invitrogen) or infected by HSV-1 with the indicated titer for 24 h. The supernatant was collected and 50 μL QUANTI-Luc Luciferase reagent (Invivogen) was added to 20 μL supernatants per well, and luciferase luminescence was detected by a microplate reader (BioTek Synergy H1) immediately.

Experiment [1] deals with dsDNA-stimulated THP1 cells. Put plainly: qPCR of IFNB1/CXCL10/IL6 mRNA in THP1 cells stimulated by dsDNA (ISD, HSV60mer). The class given is cell-based, human. To be noted: THP1, dsDNA 6 h; hits 10 μM; replicate values.
Description: as §1
The indicated cells were stimulated with either ISD (Sangon Biotech), HSV-1 (Provided by Dr. Zhengfan Jiang), HSV60mer (Sangon Biotech), SATE-cddA[70], 2’3’-cGAMP (Invivogen, Cat# tlrl-nacga23-1), ADU-S100 (MedChemExpress, Cat# HY-12885A) or Poly(I:C) (Invivogen, Cat# tlrl-pic) after XQ2 or XQ2B treatment. Total RNA was isolated from indicated cells that incubated with the drugs for indicated time or mice tissues by using NucleoZOL reagent (MACHEREY-NAGEL) according to the manufacturer’s instructions. The quantifications of mRNA levels were carried out by real-time PCR using a PerfectStart® Uni RT&qPCR Kit (TransGen Biotech) on the QuantStudio 5 qPCR machine (Applied Biosystems). Samples were carried out in triplicate and the target CT values were normalized to GAPDH CT values. Primers of qPCR used in this study can be found in Supplementary Table S2.

Experiment [2] deals with T1, recombinant human cGAS enzyme (hcGAS-ΔN, residues 147–522) (Homo sapiens, UniProt Q8N884).
T1 construct: N-terminally truncated human cGAS (hcGAS-ΔN, residues 147–522); 6xHis-SUMO (N, cleaved yes); made in house; host or cells: Escherichia coli BL21 (DE3)
As to the kind of experiment: RNA-based fluorescent biosensor assay of cGAS activity (2',3'-cGAMP formation), in vitro screening. In kind it is biochemical. To be noted: for Remaining activity (%), Fig. 1a source data / remaining activity at 20 µM: 20 μM, replicate values; for remaining activity at 20 µM: read-out: Remaining activity (%), Fig. 1a source data; for inhibition at 20 µM / Inhibition %: peptides screened at 20 μM, Supplementary Table 1 / Fig. S5b; for inhibition at 20 µM: read-out: Inhibition %. The essentials:
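In 40 mM Tris-HCl pH 7.5, 100 mM NaCl, 10 mM MgCl2, ISD (0.5 μM) started the reaction with hcGAS-ΔN (1.5 μM), ATP (1 mM) and GTP (1 mM). Incubation was 2 h at 37 °C, with compounds screened at 20 μM. 2',3'-cGAMP formed was quantified with an RNA-based fluorescent biosensor.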

T1 sequence (Q8N884 147-522, stated change not applied): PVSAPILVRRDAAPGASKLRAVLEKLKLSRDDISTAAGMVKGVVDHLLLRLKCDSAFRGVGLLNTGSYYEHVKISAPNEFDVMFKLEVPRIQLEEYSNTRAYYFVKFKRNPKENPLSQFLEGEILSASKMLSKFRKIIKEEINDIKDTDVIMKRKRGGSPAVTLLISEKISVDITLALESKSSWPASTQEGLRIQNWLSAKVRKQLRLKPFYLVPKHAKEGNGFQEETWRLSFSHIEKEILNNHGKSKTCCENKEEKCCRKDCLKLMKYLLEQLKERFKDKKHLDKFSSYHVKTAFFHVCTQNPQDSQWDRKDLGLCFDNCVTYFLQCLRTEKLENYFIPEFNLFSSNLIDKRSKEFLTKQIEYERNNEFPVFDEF

In the case of `N=C(N)NCCC[C@@H]1NC(=O)[C@@H]2CCCN2C(=O)[C@H](Cc2ccccc2)NC(=O)[C@H](CCCNC(=N)N)NC(=O)[C@@H]2CCCN2C(=O)[C@H](Cc2ccccc2)NC1=O` [XQ28, Cyclo (RFPRFP)] (cyclo(FPRFPR)), the “Type I interferon response, luciferase activity, Fig. 1c” value (shortened to “Type I interferon response”) in the experiment with THP1-Lucia ISG cells is 1.441 and 0.666 and 1.434. Further, the “IFNB1 mRNA, qPCR, Fig. 1b” value in experiment [1] was 80.7818 and 80.352 and 88.8517. Further, in experiment [2], the “cGAS activity in the biosensor assay” value was “non-active”; the “Remaining activity (%), Fig. 1a source data” value (“Remaining activity (%)” below) is 109.037% and 108.058%; the remaining activity at 20 µM is 107%; the inhibition at 20 µM stood at 0%.
Turning to `CC(C)C[C@@H]1NC(=O)[C@H](CCCNC(=N)N)NC(=O)[C@H](C(C)C)NC(=O)[C@@H]2CCCN2C(=O)[C@@H](Cc2ccccc2)NC(=O)[C@H](C)NC(=O)[C@H](CCCNC(=N)N)NC(=O)[C@H](C(C)C)NC(=O)[C@H](C)NC(=O)[C@@H](Cc2ccccc2)NC1=O` [XQ19, Cyclo (AfPVRLfAVR)] (cyclo(AVRA[dF]PVRL[dF])), in the experiment with THP1-Lucia ISG cells, the “Type I interferon response” value is 0.9185 and 0.6328 and 0.8726. Moreover, the “IFNB1 mRNA, qPCR, Fig. 1b” value in experiment [1] was 69.3649 and 64.1779 and 70.7063. Also, in experiment [2], the “Remaining activity (%)” value was 39.7338% and 39.7351%; the remaining activity at 20 µM is 40.1%; the inhibition at 20 µM turned out to be 60%. The Inhibition % in experiment [2] (20 µM) is ≥ 40%.
Consider `CC(C)C[C@@H]1NC(=O)[C@H](CC(C)C)NC(=O)[C@H](C(C)C)NC(=O)[C@@H]2CCCN2C(=O)[C@@H](Cc2ccccc2)NC(=O)[C@H](C)NC(=O)[C@H](CCCNC(=N)N)NC(=O)[C@H](C(C)C)NC(=O)[C@@H]2CCCN2C(=O)[C@@H](Cc2ccccc2)NC1=O` [XQ46, Cyclo (AfPVLLfPVR)] (cyclo(A[dF]PVLL[dF]PVR)), for which the “Type I interferon response” value with THP1-Lucia ISG cells was 0.8903 and 0.5111 and 0.5713. Besides, the “IFNB1 mRNA, qPCR, Fig. 1b” value in experiment [1] was 39.5997 and 41.1038 and 45.9315. Besides, in experiment [2], the “cGAS activity in the biosensor assay” value is “comparable inhibitory activity as that of XQ2, XQ8 and XQ19”; the “Remaining activity (%)” value was 43.44% and 43.4055%; the remaining activity at 20 µM came out at 43.8%; the inhibition at 20 µM came to 56%. The Inhibition % in experiment [2] (20 µM) was ≥ 40%.
On to `CC(C)C[C@@H]1NC(=O)[C@H](CCCNC(=N)N)NC(=O)[C@H]([C@@H](C)O)NC(=O)[C@@H]2CCCN2C(=O)[C@@H](Cc2ccccc2)NC(=O)[C@H](CC(C)C)NC(=O)[C@H](CCCNC(=N)N)NC(=O)[C@H]([C@@H](C)O)NC(=O)[C@@H]2CCCN2C(=O)CNC1=O` [XQ32, Cyclo (LgPTRLfPTR)] (cyclo(GPTRL[dF]PTRL)), for which, in experiment [2], the “Remaining activity (%)” value is 69.874% and 69.5698%; the remaining activity at 20 µM was 69.3%; the inhibition at 20 µM was determined as 30%.
With Cyclo (LfPTDLfPVR) [XQ90], the Inhibition % in experiment [2] came out at 5%.
Consider `N=C(N)NCCC[C@@H]1NC(=O)[C@@H]2CCCN2C(=O)[C@H](Cc2ccccc2)NC(=O)[C@H](CCCNC(=N)N)NC(=O)[C@@H]2CCCN2C(=O)[C@@H](Cc2ccccc2)NC1=O` [XQ27, Cyclo (RfPRFP)] (cyclo(FPR[dF]PR)), for which, in experiment [2], the “Remaining activity (%)” value is 109.194% and 109.746%; the remaining activity at 20 µM is 107%; the inhibition at 20 µM came out at 0%.
Take `CC(C)C[C@@H]1NC(=O)[C@H](CC(=O)O)NC(=O)[C@H](C(C)C)NC(=O)[C@@H]2CCCN2C(=O)[C@@H](C)NC(=O)[C@H](C)NC(=O)[C@H](CCCNC(=N)N)NC(=O)[C@H](C(C)C)NC(=O)[C@@H]2CCCN2C(=O)[C@@H](Cc2ccccc2)NC1=O` [XQ78, Cyclo (AaPVDLfPVR)] (cyclo(A[dA]PVDL[dF]PVR)): the inhibition at 20 µM in experiment [2] worked out at 0%.
As to `CC(C)[C@@H]1NC(=O)[C@@H]2CCCN2C(=O)[C@@H](C)NC(=O)[C@H](C)NC(=O)[C@H](CCCNC(=N)N)NC(=O)[C@H](C(C)C)NC(=O)[C@@H]2CCCN2C(=O)[C@@H](Cc2ccccc2)NC(=O)[C@H](C)NC(=O)[C@H](CCCNC(=N)N)NC1=O` [XQ22, Cyclo (AaPVRAfPVR)] (cyclo(A[dA]PVRA[dF]PVR)), in experiment [2], the “Remaining activity (%)” value is 99.3962% and 98.6078%; the remaining activity at 20 µM is 102%; the inhibition at 20 µM came out at 0%.
`CC(C)C[C@@H]1NC(=O)[C@H](CCCNC(=N)N)NC(=O)[C@H]([C@@H](C)O)NC(=O)[C@@H]2C[C@@H](O)CN2C(=O)[C@@H](Cc2ccccc2)NC(=O)[C@H](CC(C)C)NC(=O)[C@H](CCCNC(=N)N)NC(=O)[C@H]([C@@H](C)O)NC(=O)[C@@H]2CCCN2C(=O)[C@@H](Cc2ccccc2)NC1=O` [XQ33, Cyclo (Lf(Hyp)TRLfPTR)] (cyclo([Hyp]TRL[dF]PTRL[dF])): in experiment [2], the “Remaining activity (%)” value is 98.2995% and 98.5649%; the remaining activity at 20 µM turned out to be 97.1%; the inhibition at 20 µM is 2%.
For `CCN(CC)CCCC(C)Nc1c2ccc(Cl)cc2nc2ccc(OC)cc12` (stereo not shown) [quinacrine, reference compound], the “cGAS activity in the biosensor assay” value in experiment [2] is on record as “inhibited the activity of cGAS in a dose-dependent manner”.
Turning to `CC(C)C[C@@H]1NC(=O)[C@H](CC(=O)O)NC(=O)[C@H](CCCNC(=N)N)NC(=O)[C@H](C(C)C)NC(=O)[C@@H]2CCCN2C(=O)[C@@H](Cc2ccccc2)NC(=O)[C@H](CC(C)C)NC(=O)[C@H]([C@@H](C)O)NC(=O)[C@@H]2CCCN2C(=O)[C@@H](Cc2ccccc2)NC1=O` [XQ64, Cyclo (DLfPTLfPVR)] (cyclo(DL[dF]PTL[dF]PVR)), the inhibition at 20 µM in experiment [2] amounted to 0%.
The same measure, in the same setting: the result for `CC(C)C[C@@H]1NC(=O)[C@H](CCCNC(=N)N)NC(=O)[C@H](C(C)C)NC(=O)[C@@H]2CCCN2C(=O)[C@@H](Cc2ccccc2)NC(=O)[C@H](C)NC(=O)[C@H](CCCNC(=N)N)NC(=O)[C@H](C(C)C)NC(=O)[C@@H]2CCCN2C(=O)[C@@H](CC(C)C)NC1=O` [XQ53, Cyclo (LlPVRAfPVR)] (cyclo(A[dF]PVRL[dL]PVR)) reads 0%.
For `CC(C)C[C@@H]1NC(=O)[C@H](CCCNC(=N)N)NC(=O)[C@H](C(C)C)NC(=O)[C@@H]2CCCN2C(=O)[C@@H](C)NC(=O)[C@H](C)NC(=O)[C@H](CCCNC(=N)N)NC(=O)[C@H](C(C)C)NC(=O)[C@@H]2CCCN2C(=O)[C@@H](C)NC1=O` [XQ17, Cyclo (AaPVRLaPVR)] (cyclo(A[dA]PVRL[dA]PVR)), in experiment [2], the “Remaining activity (%)” value was 66.7673% and 68.063%; the remaining activity at 20 µM was 67.2%; the inhibition at 20 µM worked out at 32%.
As to `CC(C)C[C@@H]1NC(=O)[C@H](CC(=O)O)NC(=O)[C@H](C(C)C)NC(=O)[C@@H]2CCCN2C(=O)[C@@H](Cc2ccccc2)NC(=O)[C@H](CC(C)C)NC(=O)[C@H](CCCNC(=N)N)NC(=O)[C@H](C(C)C)NC(=O)[C@@H]2CCCN2C(=O)[C@@H](Cc2ccccc2)NC1=O` [XQ60, Cyclo (LfPVDLfPVR)] (cyclo(DL[dF]PVRL[dF]PV)), the inhibition at 20 µM in experiment [2] came to 0%.
